Assay results published in EP1016409B1, “FREEZE DRIED COMPOSITION COMPRISING GLYCOSPHINGOLIPIDS” (KIRIN BEER KABUSHIKI KAISHA, priority 1997, dated 1998).

How the values were obtained:
Assay type in all cases: physicochemical
[1] = Optimal amount of Polysorbate 20: solubility of the solution after storage, by naked eye; set-up: key: + not dissolved (or deposited); - dissolved; conditions: KRN7000 200 µg/ml, 25°C
Method: Next, 20 mg of the active component (KRN7000) was weighed and stirred in 100 ml of the Polysorbate solutions having a variety of concentrations in a heated bath at 80°C for 20 minutes in order to form a solution. After cooling with running water, the mixture was filtered through a 0.22 µm filter, and transparent colorless glass vials having a volume of 5 ml were charged with a 2 ml portion of each of a variety of solutions and sealed up.
These samples were stored at 25°C for 2 weeks, and judged of their solubility. The samples judged in solution were further stored, and judged again of their solubility after 1 month.
The solubility was judged by cleaning the outside of the vial and placing it beneath the white light source in the darkroom for observation with naked eye at the position of a luminous intensity of about 5,000 lux. When the sample was clear with no precipitates, it was judged that the active component was dissolved.

[2] = Cooling condition after dissolution with heating 1: turbidity; conditions: Polysorbate 20 0.5%, histidine 0.75%, sucrose 5.6%, cooling 73°C → 30°C; for Turbidity After filtration / Turbidity Before filtration: 800 mg KRN7000 in 4 liters; for Turbidity After filtration: 0.22 µm filter; for Turbidity After filtration / Turbidity Lyophilized composition: kaolin 1 µg/ml = turbidity 1.00; for Turbidity Before filtration: kaolin 1 µg/ml = turbidity 1.00, 660 nm; for Turbidity Lyophilized composition: reconstituted after 3 hours at room temperature (25°C)
Method: First, Polysorbate 20 was dissolved in distilled water in a concentration of 0.5%, histidine in a concentration of 0.75%, and sucrose in a concentration of 5.6%. Next, 800 mg of the active component (KRN7000) was weighed and stirred in 4 liters of the solvent under heating at 73°C for 30 minutes in order to form a solution. After dissolution, the mixture was divided into about 500 ml portions, cooled with stirring from 73°C to 30°C (6 minutes), from 73°C to 30°C (23 minutes), and from 73°C to 30°C (120 minutes). After cooling, the mixtures were filtered through a 0.22 µm filter, and transparent colorless glass vials having a volume of 5 ml were charged with a 1 ml portion of each of a variety of solutions thus obtained and subjected to lyophilization. Lyophilization was carried out under the condition of preliminary freezing at -50°C for 5 hours and drying at -15°C for 48 hours, 10°C for 12 hours, and finally at 25°C for 7 hours to give the lyophilized product. The degree of vacuum was set at 0.1 Torr or less during drying step.
The turbidity of the solutions prepared respective cooling conditions before or after the filtration step, and the lyophilized composition thus obtained which were reconstituted after leaving standing at room temperature (25°C) for 3 hours from the lyophilization step, were measured. In this connection, the lyophilized composition was reconstituted in 1 ml of distilled water for injection, left standing for 30 minutes, and turbidity was measured when the foams generated on reconstitution disappeared.
The turbidity was measured by the following method: various dilutions including 50-fold dilution (kaolin 2 µg/ml, turbidity 2.00), 100-fold dilution (kaolin 1 µg/ml, turbidity 1.00), and 200-fold dilution (kaolin 0.5 µg/ml, turbidity 0.50) were prepared by diluting the turbidity standard (kaolin, […]) with distilled water. A calibration curve was made by measuring the absorbance at a wave length of 660 nm with a control of distilled water and the various dilutions in a spectrophotometer (HITACHI U-3210). Next, the absorbance of the solutions was measured under the same condition as above to calculate the turbidity of the solutions.

[3] = Excipient appropriate to lyophilization 2: re-solubility after storage; conditions: lyophilized, KRN7000 200 µg/ml, Polysorbate 20 0.5%, 25°C
Method: The lyophilized preparations having mannitol and sucrose added thereto were observed on their variation with the passage of time.
First, Polysorbate 20 was dissolved in distilled water in a concentration of 0.5%, and the saccharides were dissolved in such concentrations as listed in Table 7. Next, 20 mg of the active component (KRN7000) was weighed and stirred in 100 ml of the solvents in a heated bath to 80°C for 20 minutes in order to form a solution. After cooling with running water, the mixture was filtered through a 0.22 µm filter, and transparent colorless glass vials having a volume of 5 ml were charged with a 1 ml portion of each of a variety of solutions thus obtained and subjected to lyophilization. Lyophilization was carried out under the condition of preliminary freezing at -40°C for 2 hours and drying at -20°C for 24 hours, 10°C for 12 hours, and finally at 25°C for 5 hours to give the lyophilized product. The degree of vacuum was set at 0.1 Torr or less during drying step.
After the lyophilization step, the lyophilized composition was stored at 25°C. After storage for 1 month, the lyophilized composition was reconstituted in 1 ml of distilled water for injection, left standing for 30 minutes, and solubility was judged when the foams generated on reconstitution disappeared. The samples judged in solution were further stored, and judged again of their solubility after 4 months.
The solubility was judged by cleaning the outside of the vial and placing it beneath the white light source in a darkroom for observation with naked eye at the position of a luminous intensity of about 5,000 lux. When the sample was clear with no precipitates, it was judged that the active component was dissolved.

SMILES: CCCCCCCCCCCCCCCCCCCCCCCCCC(=O)N[C@@H](CO[C@H]1O[C@H](CO)[C@H](O)[C@H](O)[C@H]1O)[C@H](O)[C@H](O)CCCCCCCCCCCCCC [KRN7000, (2S,3S,4R)-1-(α-D-galactopyranosyloxy)-2-hexacosanoylamino-3,4-octadecanediol]
- Variation with the passage of time after storage (by naked eye) ([1]; Polysorbate 20 0.1%, 2 weeks): +
- Variation with the passage of time after storage (by naked eye) ([1]; Polysorbate 20 0.2%, 2 weeks): +
- Variation with the passage of time after storage (by naked eye) ([1]; Polysorbate 20 0.3%, 1 month): +
- Variation with the passage of time after storage (by naked eye) ([1]; Polysorbate 20 0.3%, 2 weeks): -
- Variation with the passage of time after storage (by naked eye) ([1]; Polysorbate 20 0.5%, 1 month): +
- Variation with the passage of time after storage (by naked eye) ([1]; Polysorbate 20 0.5%, 2 weeks): -
- Variation with the passage of time after storage (by naked eye) ([1]; Polysorbate 20 1.0%, 1 month): +
- Variation with the passage of time after storage (by naked eye) ([1]; Polysorbate 20 1.0%, 2 weeks): -
- Variation with the passage of time after storage (by naked eye) ([1]; Polysorbate 20 2.0%, 1 month): +
- Variation with the passage of time after storage (by naked eye) ([1]; Polysorbate 20 2.0%, 2 weeks): -
- Variation with the passage of time after storage (by naked eye) ([1]; Polysorbate 20 4.0%, 1 month): +
- Variation with the passage of time after storage (by naked eye) ([1]; Polysorbate 20 4.0%, 2 weeks): -
- Variation with the passage of time after storage (by naked eye) ([1]; Polysorbate 20 8.0%, 1 month): +
- Variation with the passage of time after storage (by naked eye) ([1]; Polysorbate 20 8.0%, 2 weeks): -
- Turbidity After filtration ([2]; 6 minutes): 0.13
- Turbidity Before filtration ([2]; 6 minutes): 0.23
- Turbidity After filtration ([2]; 23 minutes): 0.15
- Turbidity Before filtration ([2]; 23 minutes): 0.58
- Turbidity After filtration ([2]; 120 minutes): 0.16
- Turbidity Before filtration ([2]; 120 minutes): 0.64
- Turbidity Lyophilized composition ([2]; 6 minutes): 0.24
- Turbidity Lyophilized composition ([2]; 23 minutes): 0.36
- Turbidity Lyophilized composition ([2]; 120 minutes): 0.36
- Re-solubility after storage (by naked eye) ([3]; Mannitol 10%, 1 month): - (- dissolved)
- Re-solubility after storage (by naked eye) ([3]; Mannitol 10%, 4 months): + (+ not dissolved (or deposited))
- Re-solubility after storage (by naked eye) ([3]; Sucrose 9.6%, 1 month): - (- dissolved)
- Re-solubility after storage (by naked eye) ([3]; Sucrose 9.6%, 4 months): + (+ not dissolved (or deposited))
